Laboratory results from patent US20240059747A1, “UBIQUITIN VARIANT WITH HIGH AFFINITY FOR BINDING 53BP1 REDUCES THE AMOUNT OF AAV NEEDED TO ACHIEVE HIGH RATES OF HDR” (Integrated DNA Technologies, Inc., priority 2022, published 2024).

Experiments:
HEK293 cells = experiment: percent HDR by EcoR1 cleavage assay, Cas9 RNP nucleofection with AAV donor, HEK293 cells; format: cell-based; details: for dose dependence of HDR benefit: AAV donor at MOI 20,000, doses up to 200 μM
Method: FIG. 1C depicts an exemplary heatmap showing the percent HDR at SERPINC1 in K562 cells with and without 50 uM CM1tf. […] The heatmaps show the percent HDR measured by EcoR1 cleavage assay with and without the use of CM1tf. Cas9 RNP (2 μM) was delivered with and without CM1tf into cells by Lonza nucleofection using 4 μM Alt-R Cas9 Electroporation Enhancer. AAV donor containing an EcoR1 cut site insert with 500 bp homology arms was added at a range of multiplicity of infection (MOIs) to cells for 24 hours following RNP delivery.
FIG. 2B depicts an exemplary heatmap showing the percent HDR at SERPINC1 in HEK293 cells with no enhancer, CM1tf, V2, or CM1tf+V2. […] Cas9 RNP was co-delivered with and without CM1tf into cells by Lonza nucleofection with 2 μM Cas9 RNP, 4 μM Alt-R Cas9 Electroporation Enhancer, and 0 or 25 uM CM1tf. AAV donor containing an EcoR1 cut site insert with 500 bp homology arms was added at a range of MOIs to cells for 24 hours following RNP delivery. V2 enhancer was added to media at a 1 uM final concentration for 24 hours following nucleofection.
The heatmaps show the percent HDR at STAT3 measured by EcoR1 cleavage assay with or without CM1tf. Cas9 RNP was co-delivered with and without CM1tf into cells by Lonza nucleofection with 2 μM Cas9 RNP, 4 μM Alt-R Cas9 Electroporation Enhancer, and 0 or 25 uM CM1tf. AAV donor containing 500 base pair (bp), 300 bp, or 100 bp homology arms was added at a range of MOIs to cells for 24 hours following RNP delivery.
Cas9 RNP was co-delivered with and without CM1tf into cells by Lonza nucleofection with 2 μM Cas9 RNP, 4 μM Alt-R Cas9 Electroporation Enhancer, and range of CM1tf concentrations from 200 μM to 6.25 μM. AAV donor containing an EcoR1 cut site insert with 500 bp homology arms was added at an MOI of 20,000 to cells for 24 hours following RNP delivery.
We developed at tag-free version of CM1 (CM1tf) and tested its ability to enhance HDR in cell lines using AAV donor (see Table 1). AAV-DJ, a synthetic AAV serotype most closely related to AAV-2 that is a chimera of type 2/type 8/ and type 9, was chosen for testing due to its high transduction efficiency in vitro for a broad range of cell types. The dose of CM1tf was held constant while a range of MOIs was used for the AAV donor. The AAV donor was constructed such that a 6 base pair insert consisting of an EcoR1 cut site (GAATTC) was flanked by 500 base pairs of homology arm matching the genomic sequence on either side of the target cut site. Briefly, Cas9 V3 protein (IDT) and Alt-R sgRNA (IDT) were mixed at a 1:1.2 ratio, incubated for 10 min, then Alt-R Cas9 electroporation enhancer (EE) (IDT), 1× PBS (Gibco), and CM1tf, diluted in 1× PBS, were added. HEK293 or K562 cells were washed and resuspended in SF buffer for Lonza Nucleofection and added to the RNP+DNA mix such that the final concentration of Cas9 RNP was 2 μM, EE was 4 μM, and CM1tf was 25 μM (HEK293 cells) or 50 μM (K562 cells). Cells plus RNP+DNA were electroporated using program DS-150 (HEK293 cells) or FF-120 (K562 cells) using the Lonza nucleofector system. Cells were then plated in 96 well plates at 20,000 cells/well and AAV was added to the wells at a range of MOI from 0 (no virus) to 160,000, with MOI being calculated as viral genomes (vg) per cell with vg calculated using qPCR. Cells were recovered and plated with serum free media, AAV was added, then serum containing media was added after four hours. Genomic DNA was isolated 48 hours after RNP delivery using QuickExtract (Lucigen).
In order to optimize HDR, it is often desirable to use a combination of HDR enhancers that work by different mechanisms to further boost HDR rates beyond what can be achieved by any single enhancer alone.

K562 cells = experiment: percent HDR by EcoR1 cleavage assay, Cas9 RNP nucleofection with AAV donor, K562 cells; format: cell-based; details: 50 μM CM1tf, SERPINC1, AAV donor MOI range, FIG. 1C
Method: FIG. 1C depicts an exemplary heatmap showing the percent HDR at SERPINC1 in K562 cells with and without 50 uM CM1tf. In FIG. 1A-C, the ubiquitin variant CM1tf boosts HDR when delivered with Cas9 RNP when an AAV vector is used to deliver the donor template. The heatmaps show the percent HDR measured by EcoR1 cleavage assay with and without the use of CM1tf. Cas9 RNP (2 μM) was delivered with and without CM1tf into cells by Lonza nucleofection using 4 μM Alt-R Cas9 Electroporation Enhancer. AAV donor containing an EcoR1 cut site insert with 500 bp homology arms was added at a range of multiplicity of infection (MOIs) to cells for 24 hours following RNP delivery.
We developed at tag-free version of CM1 (CM1tf) and tested its ability to enhance HDR in cell lines using AAV donor (see Table 1). AAV-DJ, a synthetic AAV serotype most closely related to AAV-2 that is a chimera of type 2/type 8/ and type 9, was chosen for testing due to its high transduction efficiency in vitro for a broad range of cell types. The dose of CM1tf was held constant while a range of MOIs was used for the AAV donor. […] Cells were then plated in 96 well plates at 20,000 cells/well and AAV was added to the wells at a range of MOI from 0 (no virus) to 160,000, with MOI being calculated as viral genomes (vg) per cell with vg calculated using qPCR. […]

HDR [1] = details: ssDNA donor; previous testing; cited from earlier work
53BP1 foci = details: introduced into cells; cited from earlier work
HDR [2] = details: plasmid, AAV mediated gene delivery or mRNA delivery; double-stranded and single-stranded DNA donors; cited from earlier work

Row | Substance | improvement in HDR rates, single enhancers and combination (HEK293 cells; 25 uM CM1tf, 1 μM V2 enhancer in media for 24 hours, AAV donor MOI range, HPRT1 and SERPINC1, FIG. 2) | boost of HDR rates (HEK293 cells; 25 μM CM1tf, AAV-DJ donor with 500 bp homology arms, MOI 0 to 160,000, HPRT1 and SERPINC1, FIG. 1A-B) | HDR boost compared with i53 (HEK293 cells; AAV donor at MOI 20,000, doses 6.25 to 200 μM, FIG. 4) | dose dependence of HDR benefit (HEK293 cells; FIG. 4) | less AAV needed to achieve the same level of editing as without enhancer (HEK293 cells; HEK293 cells, 25 μM CM1tf, AAV donor MOI range) | boost of HDR (K562 cells) | benefit to HDR as a function of dose (HDR [1]) | optimal concentration for HDR benefit (HDR [1]) | formation of ionizing radiation induced 53BP1 foci (53BP1 foci) | rates of HDR (HDR [2])
1 | CM1tf: tag-free version of ubiquitin variant CM1, SEQ ID NO: 3; K6R, T7M, T12M, T14E, K33H, A46Q, S65P, L67K, H68M relative to i53 | approximately equivalent improvement in HDR rates | dramatically boosted HDR rates | continued to outperform i53 | slightly larger benefit to HDR with increasing dose | approximately four-fold | boosts HDR |  |  |  | 
2 | i53: ubiquitin variant inhibitor of 53BP1 (Canny et al.), SEQ ID NO: 1 |  |  |  | large performance increase going from 100 μM to 200 μM |  |  | decrease in benefit at 200 μM | 100 to 150 µM | inhibited the formation ionizing radiation induced 53BP1 foci | improve the rates of HDR
